# *1 amine or outer side, *2 acyl side, *3 side chain or, on linkers, in order; H or OH if unused. Where a SMILES comes first, the peptide text is derived from it. Side-chain parts run from the residue outwards. [ ]: non-standard residue; d: D form. The star is where a group is joined. Tetrahydroisoquinolin(2-yl) = c1ccc2c(c1)CCN(*)C2; Ac3c(1R,2S-2-vinyl) = C=C[C@@H]1C[C@]1(N)C(=O)O; Hyp = O=C(O)[C@@H]1C[C@@H](O)CN1; Chg = N[C@H](C(=O)O)C1CCCCC1; CO = O=C([*:1])[*:2]; Carbamoyl = NC(=O)*
# Tests used:
# Hepatitis C virus [1] = test: Antiviral activity against Hepatitis C virus infected in human HuH7 cells assessed as inhibition of HCV subgenomic replicon replication after 72 hrs by ELISA; format: functional, organism-based, Hepacivirus hominis, Huh-7; conditions: Hepatitis C virus, Huh-7, 72 h; read-out: EC50
# [2] = Inhibition of Hepatitis C virus full-length NS3/4A protease assessed as quenched-fluorogenic RET-S1 substrate cleavage incubated for 10 mins prior to substrate addition by FRET analysis; set-up: species or system Hepacivirus hominis
# Hepatitis C virus [3] = test: Antiviral activity against Hepatitis C virus genotype 3 infected in human HuH7 cells assessed as decrease in replicon RNA level after 2 days by TaqMan Gold RT-PCR analysis; format: functional, organism-based, Hepacivirus hominis; conditions: genotype 3, Huh-7, 48 h
# Hepatitis C virus [4] = test: Antiviral activity against Hepatitis C virus genotype 1b infected in human HuH7 cells assessed as decrease in replicon RNA level after 2 days by TaqMan Gold RT-PCR analysis; format: functional, organism-based, Hepacivirus hominis; conditions: Huh-7, 48 h
# Hepatitis C virus [5] = test: Antiviral activity against Hepatitis C virus genotype 2 infected in human HuH7 cells assessed as decrease in replicon RNA level after 2 days by TaqMan Gold RT-PCR analysis; format: functional, organism-based, Hepacivirus hominis; conditions: genotype 2, Huh-7, 48 h
# [6] = Inhibition of Hepatitis C virus genotype 3a NS3/4A protease using Ac-DE-Dap(QXL520)-EE-Abu-psi-[COO]-AS-Cys(5-FAMsp)-NH2 as substrate by FRET analysis; set-up: species or system Hepatitis C virus subtype 3a
# [7] = Inhibition of Hepatitis C virus genotype 2b NS3/4A protease using Ac-DE-Dap(QXL520)-EE-Abu-psi-[COO]-AS-Cys(5-FAMsp)-NH2 as substrate by FRET analysis; set-up: species or system Hepatitis C virus subtype 2b
# [8] = Inhibition of Hepatitis C virus genotype 6 NS3/4A protease using Ac-DE-Dap(QXL520)-EE-Abu-psi-[COO]-AS-Cys(5-FAMsp)-NH2 as substrate by FRET analysis
# [9] = Inhibition of Hepatitis C virus genotype 5 NS3/4A protease using Ac-DE-Dap(QXL520)-EE-Abu-psi-[COO]-AS-Cys(5-FAMsp)-NH2 as substrate by FRET analysis
# [10] = Inhibition of Hepatitis C virus genotype 4 NS3/4A protease using Ac-DE-Dap(QXL520)-EE-Abu-psi-[COO]-AS-Cys(5-FAMsp)-NH2 as substrate by FRET analysis
# [11] = Inhibition of Hepatitis C virus genotype 1b NS3/4A protease using Ac-DE-Dap(QXL520)-EE-Abu-psi-[COO]-AS-Cys(5-FAMsp)-NH2 as substrate by FRET analysis; set-up: species or system Hepatitis C virus subtype 1b
# [12] = Inhibition of Hepatitis C virus genotype 1a NS3/4A protease using Ac-DE-Dap(QXL520)-EE-Abu-psi-[COO]-AS-Cys(5-FAMsp)-NH2 as substrate by FRET analysis; set-up: species or system Hepatitis C virus subtype 1a
# [13] = Dissociation constant, pKa of the compound; format: physicochemical
# Hepatitis C virus [14] = test: Ratio of EC50 for Hepatitis C virus harboring NS3/4A protease A156T mutant gene to EC50 for Hepatitis C virus harboring wild type NS3/4A protease infected in human HuH7 cells; format: functional, Hepacivirus hominis, Huh-7
# Hepatitis C virus [15] = test: Antiviral activity against Hepatitis C virus harboring NS3/4A protease A156T mutant gene infected in human HuH7 cells assessed as inhibition of HCV subgenomic replicon replication after 72 hrs by ELISA; format: functional, organism-based, Hepacivirus hominis; conditions: Huh-7, 72 h
# Hepatitis C virus [16] = test: Antiviral activity against Hepatitis C virus harboring wild type NS3/4A protease infected in human HuH7 cells assessed as inhibition of HCV subgenomic replicon replication after 72 hrs by ELISA; format: functional, organism-based, Hepacivirus hominis; conditions: Huh-7, 72 h
# Hepatitis C virus [17] = test: Antiviral activity against Hepatitis C virus […] isolate Con1 harboring NS3/4A protease A156T mutant gene infected in human HuH7 cells assessed as inhibition of HCV replicon replication by luciferase assay; format: functional, organism-based, Hepacivirus hominis; conditions: isolate Con1, Huh-7
# Hepatitis C virus [18] = test: Antiviral activity against Hepatitis C virus […] isolate Con1 harboring wild type NS3/4A protease infected in human HuH7 cells assessed as inhibition of HCV replicon replication by luciferase assay; format: functional, organism-based, Hepacivirus hominis; conditions: isolate Con1, Huh-7
# NS3 protease = NS3 protease (Hepacivirus C, UniProt C1KIQ2, A156T); test: Inhibition of Hepatitis C virus genotype 1a NS3/4A protease A156T mutant expressed in Escherichia coli BL21 (DE3) cells assessed as substrate cleavage using Ac-DE-Dap(QXL520)-EE-Abu-psi-[COO]AS-C(5-FAMsp)-NH2 as substrate by plate reader analysis; set-up: species or system Hepatitis C virus subtype 1a
# [19] = Inhibition of Hepatitis C virus genotype 1a wild type NS3/4A protease expressed in Escherichia coli BL21 (DE3) cells assessed as substrate cleavage using Ac-DE-Dap(QXL520)-EE-Abu-psi-[COO]AS-C(5-FAMsp)-NH2 as substrate by plate reader analysis; set-up: species or system Hepatitis C virus subtype 1a
# [20] = Ratio of AUC (0 to 24 hrs) in liver to plasma in Sprague-Dawley rat at 30 mg/kg, po by HPLC-MS/MS analysis; format: ADME, organism-based; set-up: dose 30 mg/kg, route oral; conditions: Sprague-Dawley, liver and plasma, read-out: Ratio AUC
# [21] = AUC (0 to 24 hrs) in Sprague-Dawley rat plasma at 30 mg/kg, po by HPLC-MS/MS analysis; format: ADME, organism-based; set-up: time < 24 hr, dose 30 mg/kg, route oral
# [22] = AUC (0 to 24 hrs) in Sprague-Dawley rat liver at 30 mg/kg, po by HPLC-MS/MS analysis; format: ADME, organism-based; set-up: time < 24 hr, dose 30 mg/kg, route oral
# [23] = Plasma clearance in rat assessed as extraction ratio; format: ADME, organism-based; conditions: read-out: ERH
# [24] = Efflux ratio of permeability from basolateral to apical side over apical to basolateral side in human Caco2 cells; format: ADME, cell-based; conditions: Caco-2
# [25] = Permeability from apical to basolateral side of human Caco2 cells; format: ADME, cell-based; conditions: Caco-2, read-out: permeability
# [26] = Aqueous solubility of the compound at pH 6.5 by modified shake-flask method; format: physicochemical
# [27] = Aqueous solubility of the compound at pH 7.4 by modified shake-flask method; format: physicochemical
# [28] = Aqueous solubility of the compound at pH 1.2 by modified shake-flask method; format: physicochemical
# [29] = Metabolic stability in dog hepatocytes assessed as extraction ratio at 1 uM; format: ADME, cell-based, Canis lupus familiaris, Hepatocyte; conditions: read-out: ERH
# [30] = Metabolic stability in cynomolgus monkey hepatocytes assessed as extraction ratio at 1 uM; format: ADME, cell-based, Macaca fascicularis, Hepatocyte; conditions: read-out: ERH
# [31] = Metabolic stability in human hepatocytes assessed as extraction ratio at 1 uM; format: ADME, cell-based, Hepatocyte; conditions: read-out: ERH
# [32] = Metabolic stability in rat hepatocytes assessed as extraction ratio at 1 uM; format: ADME, cell-based, Hepatocyte; conditions: read-out: ERH
# [33] = Lipophilicity, log D of the compound; format: physicochemical; conditions: octanol/water
# [34] = Ratio of drug level in liver to plasma in dog; format: ADME, tissue-based, Canis lupus familiaris; conditions: liver and plasma
# [35] = Oral bioavailability in monkey liver; format: ADME, organism-based, Macaca mulatta; conditions: rhesus monkey
# [36] = Oral bioavailability in rat liver; format: ADME, organism-based
# [37] = biological target: Voltage-gated inwardly rectifying potassium channel KCNH2 (Homo sapiens, UniProt Q12809); test: Inhibition of human ERG at 10 uM
# Cytochrome P450 3A4 [38] = biological target: T1, Cytochrome P450 3A4 (Homo sapiens, UniProt P08684); test: Time-dependent induction of CYP3A4 (unknown origin); format: ADME
# Cytochrome P450 3A4 [39] = biological target: T1, Cytochrome P450 3A4; test: Inhibition of CYP3A4 (unknown origin); format: ADME
# Cytochrome P450 2D6 = Cytochrome P450 2D6 (Homo sapiens, UniProt P10635); test: Inhibition of CYP2D6 (unknown origin); format: ADME
# Cytochrome P450 2C19 = Cytochrome P450 2C19 (Homo sapiens, UniProt P33261); test: Inhibition of CYP2C19 (unknown origin); format: ADME
# Cytochrome P450 2C9 = Cytochrome P450 2C9 (Homo sapiens, UniProt P11712); test: Inhibition of CYP2C9 (unknown origin); format: ADME
# Cytochrome P450 1A2 = biological target: T2, Cytochrome P450 1A2 (Homo sapiens, UniProt P05177); test: Inhibition of CYP1A2 (unknown origin); format: ADME
# T2 sequence (P05177 whole entry): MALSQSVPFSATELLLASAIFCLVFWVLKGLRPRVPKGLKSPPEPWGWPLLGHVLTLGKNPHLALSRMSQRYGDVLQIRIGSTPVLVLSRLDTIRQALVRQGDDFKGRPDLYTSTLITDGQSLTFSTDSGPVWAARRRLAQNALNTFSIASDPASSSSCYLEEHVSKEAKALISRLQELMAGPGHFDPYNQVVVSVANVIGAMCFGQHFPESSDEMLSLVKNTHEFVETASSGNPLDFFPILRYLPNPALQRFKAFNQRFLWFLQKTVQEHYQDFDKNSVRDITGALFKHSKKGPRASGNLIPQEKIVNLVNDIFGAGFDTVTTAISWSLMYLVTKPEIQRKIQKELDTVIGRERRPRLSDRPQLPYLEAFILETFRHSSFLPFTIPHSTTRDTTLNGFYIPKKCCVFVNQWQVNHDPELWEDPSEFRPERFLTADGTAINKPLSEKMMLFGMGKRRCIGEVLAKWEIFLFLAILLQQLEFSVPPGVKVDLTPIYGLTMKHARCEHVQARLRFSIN
# [40] = Cytotoxicity against human MT4 cells; format: cell-based
# Rattus norvegicus = test: Volume of distribution at steady state in Sprague-Dawley rat at 1 mg/kg, iv by HPLC-MS/MS analysis; conditions: in vivo
# T1 sequence (P08684 whole entry): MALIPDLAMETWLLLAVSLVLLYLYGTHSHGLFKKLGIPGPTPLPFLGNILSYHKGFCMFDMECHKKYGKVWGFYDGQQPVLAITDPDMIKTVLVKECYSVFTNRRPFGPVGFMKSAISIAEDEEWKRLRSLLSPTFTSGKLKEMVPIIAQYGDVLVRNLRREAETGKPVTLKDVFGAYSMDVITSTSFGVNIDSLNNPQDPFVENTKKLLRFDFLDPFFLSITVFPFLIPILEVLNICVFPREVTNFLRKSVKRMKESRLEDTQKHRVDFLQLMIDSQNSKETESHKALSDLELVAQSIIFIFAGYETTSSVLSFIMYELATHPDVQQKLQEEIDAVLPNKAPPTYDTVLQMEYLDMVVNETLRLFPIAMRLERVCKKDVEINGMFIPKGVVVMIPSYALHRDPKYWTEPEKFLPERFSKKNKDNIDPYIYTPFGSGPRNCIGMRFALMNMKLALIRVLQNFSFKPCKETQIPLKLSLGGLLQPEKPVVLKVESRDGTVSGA
# Chain of Cytochrome P450 2C9 (P11712 whole entry): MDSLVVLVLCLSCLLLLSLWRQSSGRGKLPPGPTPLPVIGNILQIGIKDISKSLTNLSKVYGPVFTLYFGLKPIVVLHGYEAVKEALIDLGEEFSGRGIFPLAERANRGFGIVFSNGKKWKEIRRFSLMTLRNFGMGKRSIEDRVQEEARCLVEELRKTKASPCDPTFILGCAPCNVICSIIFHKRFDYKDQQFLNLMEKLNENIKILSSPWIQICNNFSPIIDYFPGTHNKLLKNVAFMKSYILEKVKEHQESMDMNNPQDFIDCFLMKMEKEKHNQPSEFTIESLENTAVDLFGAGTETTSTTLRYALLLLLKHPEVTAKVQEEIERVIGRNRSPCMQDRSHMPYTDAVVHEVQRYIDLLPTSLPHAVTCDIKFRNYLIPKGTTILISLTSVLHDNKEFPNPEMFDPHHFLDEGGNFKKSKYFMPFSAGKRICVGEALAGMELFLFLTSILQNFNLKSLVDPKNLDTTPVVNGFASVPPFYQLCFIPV
# Chain of Cytochrome P450 2C19 (P33261 whole entry): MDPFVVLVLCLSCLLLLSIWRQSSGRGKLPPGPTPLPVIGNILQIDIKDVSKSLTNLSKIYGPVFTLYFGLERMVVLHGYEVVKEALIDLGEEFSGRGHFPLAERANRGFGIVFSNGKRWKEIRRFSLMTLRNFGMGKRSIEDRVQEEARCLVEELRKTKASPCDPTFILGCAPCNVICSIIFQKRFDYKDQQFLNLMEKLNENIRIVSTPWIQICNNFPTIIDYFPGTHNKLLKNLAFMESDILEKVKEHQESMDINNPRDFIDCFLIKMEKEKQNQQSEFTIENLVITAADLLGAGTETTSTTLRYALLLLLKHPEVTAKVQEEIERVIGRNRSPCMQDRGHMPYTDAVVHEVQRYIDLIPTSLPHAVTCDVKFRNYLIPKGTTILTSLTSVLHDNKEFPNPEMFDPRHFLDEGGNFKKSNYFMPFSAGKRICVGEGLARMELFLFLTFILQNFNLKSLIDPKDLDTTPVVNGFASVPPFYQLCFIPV
# Chain of Cytochrome P450 2D6 (P10635 whole entry): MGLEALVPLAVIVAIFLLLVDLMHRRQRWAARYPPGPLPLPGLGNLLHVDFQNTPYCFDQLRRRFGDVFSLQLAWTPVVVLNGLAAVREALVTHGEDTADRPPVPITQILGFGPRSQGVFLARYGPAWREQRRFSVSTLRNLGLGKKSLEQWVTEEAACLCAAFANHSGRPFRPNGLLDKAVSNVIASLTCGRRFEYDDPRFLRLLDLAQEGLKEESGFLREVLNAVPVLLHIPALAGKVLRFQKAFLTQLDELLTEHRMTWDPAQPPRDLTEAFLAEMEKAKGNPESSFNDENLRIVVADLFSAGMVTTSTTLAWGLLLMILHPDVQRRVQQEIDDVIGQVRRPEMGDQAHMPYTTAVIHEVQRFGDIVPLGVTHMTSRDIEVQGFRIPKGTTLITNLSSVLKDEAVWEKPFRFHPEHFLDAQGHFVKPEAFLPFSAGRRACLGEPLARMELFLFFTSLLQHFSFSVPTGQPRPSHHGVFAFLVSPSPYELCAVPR
# Chain of NS3 protease (C1KIQ2 entry or part of it A156T): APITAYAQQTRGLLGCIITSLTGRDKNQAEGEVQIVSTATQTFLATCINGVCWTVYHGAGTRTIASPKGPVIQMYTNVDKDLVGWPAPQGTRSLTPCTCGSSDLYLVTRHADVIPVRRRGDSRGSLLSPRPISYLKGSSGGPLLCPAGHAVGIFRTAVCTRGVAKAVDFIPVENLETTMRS
# Chain of Voltage-gated inwardly rectifying potassium channel KCNH2 (Q12809 whole entry): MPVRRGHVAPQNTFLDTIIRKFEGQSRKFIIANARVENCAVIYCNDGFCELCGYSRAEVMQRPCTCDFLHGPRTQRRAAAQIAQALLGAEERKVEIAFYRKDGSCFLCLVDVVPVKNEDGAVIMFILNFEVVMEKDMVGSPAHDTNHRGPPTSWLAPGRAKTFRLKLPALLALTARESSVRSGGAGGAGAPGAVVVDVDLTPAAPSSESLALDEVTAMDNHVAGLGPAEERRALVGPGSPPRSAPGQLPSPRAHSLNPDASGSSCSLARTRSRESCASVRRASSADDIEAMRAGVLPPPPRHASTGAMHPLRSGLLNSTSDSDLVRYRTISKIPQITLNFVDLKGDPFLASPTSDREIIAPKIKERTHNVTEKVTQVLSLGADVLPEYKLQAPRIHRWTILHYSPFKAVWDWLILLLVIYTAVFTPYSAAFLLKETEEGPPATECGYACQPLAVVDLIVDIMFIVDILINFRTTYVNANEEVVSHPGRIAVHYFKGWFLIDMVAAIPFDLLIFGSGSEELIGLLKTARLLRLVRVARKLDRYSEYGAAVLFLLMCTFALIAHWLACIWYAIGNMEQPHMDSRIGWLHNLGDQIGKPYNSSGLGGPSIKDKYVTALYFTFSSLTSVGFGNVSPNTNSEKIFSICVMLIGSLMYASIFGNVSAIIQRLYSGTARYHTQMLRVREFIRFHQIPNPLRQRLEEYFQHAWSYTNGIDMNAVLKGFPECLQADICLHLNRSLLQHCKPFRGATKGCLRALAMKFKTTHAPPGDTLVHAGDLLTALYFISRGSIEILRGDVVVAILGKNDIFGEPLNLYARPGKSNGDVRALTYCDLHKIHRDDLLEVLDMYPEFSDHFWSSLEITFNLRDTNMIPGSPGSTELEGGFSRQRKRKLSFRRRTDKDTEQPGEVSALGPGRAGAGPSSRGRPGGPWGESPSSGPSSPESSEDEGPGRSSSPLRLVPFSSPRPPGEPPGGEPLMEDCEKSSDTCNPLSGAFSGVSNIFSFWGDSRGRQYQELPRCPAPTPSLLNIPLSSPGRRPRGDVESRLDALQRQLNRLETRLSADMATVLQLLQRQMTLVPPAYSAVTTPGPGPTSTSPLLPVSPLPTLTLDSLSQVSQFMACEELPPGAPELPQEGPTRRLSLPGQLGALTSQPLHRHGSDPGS
smiles,measurement,setting,value
"C=C[C@@H]1C[C@]1(NC(=O)[C@@H]1C[C@@H](OC(N)=O)CN1C(=O)[C@@H](NC(=O)[C@@H](NC(C)=O)C1CCCCC1)C(C)C)C(=O)O (Ac-[Chg]V[Hyp](Carbamoyl)[Ac3c(1R,2S-2-vinyl)]-OH)",EC50,Hepatitis C virus [1],> 10000 nM
same,IC50,[2],200 nM
"C=C[C@@H]1C[C@]1(NC(=O)[C@@H]1C[C@@H](OC(=O)N2CCc3ccccc3C2)CN1C(=O)[C@@H](NC(=O)[C@@H](NC(C)=O)C1CCCCC1)C(C)C)C(=O)O (Ac-[Chg]V[Hyp]([CO-Tetrahydroisoquinolin(2-yl)])[Ac3c(1R,2S-2-vinyl)]-OH)",EC50,Hepatitis C virus [1],> 10000 nM
same,IC50,[2],210 nM
CC(C)(C)OC(=O)N[C@H]1CCCCC/C=C\[C@@H]2C[C@@]2(C(=O)NS(=O)(=O)C2CC2)NC(=O)[C@@H]2C[C@@H](OC(=O)N3Cc4cccc(F)c4C3)CN2C1=O [DANOPREVIR],EC50,Hepatitis C virus [3],20 nM
same,EC50,Hepatitis C virus [4],1.6 nM
same,EC50,Hepatitis C virus [5],20 nM
same,IC50,[6],3.5 nM
same,IC50,[7],1.6 nM
same,IC50,[8],0.2 nM
same,IC50,[9],0.2 nM
same,IC50,[10],0.2 nM
same,IC50,[11],0.2 nM
same,IC50,[12],0.2 nM
same,EC50,Hepatitis C virus [1],2.4 nM
same,IC50,[2],1 nM
same,pKa,[13],5.27
same,Ratio EC50,Hepatitis C virus [14],2
same,EC50,Hepatitis C virus [15],0.5 nM
same,EC50,Hepatitis C virus [16],< 0.25 nM
same,IC50,Hepatitis C virus [17],5.7 nM
same,IC50,Hepatitis C virus [18],0.24 nM
same,Ki,NS3 protease,44.8 nM
same,Ki,[19],1 nM
same,Kp,[20],10
same,AUC(0-t) at 24 h,[21],9500 ng·h/mL
same,AUC(0-t) at 24 h,[22],90800 ng·h/mL
same,hepatic extraction ratio,[23],0.04
same,efflux ratio,[24],> 2
same,Papp A→B,[25],< 2 ×10⁻⁶ cm/s
same,solubility thermodynamic,[26],548 µg/mL
same,solubility thermodynamic,[27],> 1000 µg/mL
same,solubility thermodynamic,[28],0.5 µg/mL
same,hepatic extraction ratio at 1 µM,[29],0.23
same,hepatic extraction ratio at 1 µM,[30],0.54
same,hepatic extraction ratio at 1 µM,[31],0.58
same,hepatic extraction ratio at 1 µM,[32],0.06
same,logD,[33],2.1
same,Kp,[34],30
same,bioavailability,[35],78%
same,bioavailability,[36],15%
same,inhibition (INH),[37],Not Active
same,Activity,Cytochrome P450 3A4 [38],Not Active
same,INH,Cytochrome P450 3A4 [39],12 µM
same,INH,Cytochrome P450 2D6,> 25 µM
same,INH,Cytochrome P450 2C19,> 25 µM
same,INH,Cytochrome P450 2C9,> 25 µM
same,INH,Cytochrome P450 1A2,> 25 µM
same,CC50,[40],54000 nM
same,Vdss,Rattus norvegicus,0.155 L/kg

# From ChEMBL document CHEMBL3120136 (J Med Chem, 2014)
